Source: ChEMBL document CHEMBL1128011, “Discovery of nonpeptide potent conformationally restricted angiotensin II receptor antagonists” (Bioorg Med Chem Lett, 1994)

Target: T1, Type-1 angiotensin II receptor B (Rattus norvegicus, UniProt P29089)
T1 sequence (P29089 whole entry): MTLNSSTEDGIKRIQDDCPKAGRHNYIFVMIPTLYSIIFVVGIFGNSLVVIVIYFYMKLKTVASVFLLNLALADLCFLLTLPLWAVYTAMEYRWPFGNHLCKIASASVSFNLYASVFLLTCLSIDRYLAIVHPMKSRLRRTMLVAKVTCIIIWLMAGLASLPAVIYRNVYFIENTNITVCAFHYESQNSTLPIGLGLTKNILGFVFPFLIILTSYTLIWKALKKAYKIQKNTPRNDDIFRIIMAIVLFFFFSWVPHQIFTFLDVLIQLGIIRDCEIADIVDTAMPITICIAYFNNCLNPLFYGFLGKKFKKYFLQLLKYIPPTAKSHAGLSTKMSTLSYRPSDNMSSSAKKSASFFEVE
Test: Displacement of [125-I]-labeled angiotensin II from Angiotensin II receptor, type 1 of rat uterine membranes
Assay type: cell membranes, Membrane
Conditions: not given

Q: `CCCCc1ncc2n1C(c1ccc(-c3ccccc3-c3nnn[nH]3)cc1)CC=C2` (stereo not given) was tested. Which IC50 did it give?
A: The IC50 was over 10 µM.

Q: With `CCCCn1nc(C(CCC)CCO)n(Cc2ccc(-c3ccccc3-c3nnn(C(c4ccccc4)(c4ccccc4)c4ccccc4)n3)cc2)c1=O` (stereo not given) as the molecule, how does the IC50 read?
A: Its IC50 is over 10 µM.

Q: For `CCCCn1nc2n(c1=O)C(c1ccc(-c3ccccc3-c3nnn(C(c4ccccc4)(c4ccccc4)c4ccccc4)n3)cc1)CCC2CCC` (stereo not given), which IC50 is on record?
A: Its IC50 is over 10 µM.

Q: How did the IC50 turn out when `CCCCn1nc(C(CCC)CC2=NC(C)(C)CO2)n(Cc2ccc(-c3ccccc3-c3nnn(C(c4ccccc4)(c4ccccc4)c4ccccc4)n3)cc2)c1=O` (stereo not given) was run?
A: Its IC50 is over 10 µM.

Q: Which IC50 does the source give for `CCCCN1N=C(CCC)/C(=C/c2ccc(-c3ccccc3-c3nn[nH]n3)cc2)C1=O` here?
A: The IC50 was 45 µM.

Q: Which IC50 does the source give for `CCCCN1N=C(CCC)C(Cc2ccc(-c3ccccc3-c3nn[nH]n3)cc2)C1=O` (stereo not given) here?
A: Its IC50 is 0.5 µM.

Q: `CCCCn1nc(C(Br)CCC)n(Cc2ccc(-c3ccccc3-c3nnn(C(c4ccccc4)(c4ccccc4)c4ccccc4)n3)cc2)c1=O` (stereo not given) was tested. Which IC50 did it give?
A: Its IC50 is over 10 µM.

Q: Which IC50 does the source give for `CCCC1CCC(c2ccc(-c3ccccc3-c3nnn[nH]3)cc2)n2c1n[nH]c2=O` (stereo not given) here?
A: The IC50 was over 10 µM.

Q: `CCCCc1nn(CCCC)c(=O)n1Cc1ccc(-c2ccccc2-c2nnn[nH]2)cc1` was tested. Which IC50 did it give?
A: The IC50 was 0.005 µM.

Q: With `CCCCc1nn(CCCC)c(=O)n1Cc1ccc(-c2ccccc2-c2nnn(C(c3ccccc3)(c3ccccc3)c3ccccc3)n2)cc1` as the molecule, how does the IC50 read?
A: The IC50 was over 10 µM.

Q: For `CCCCn1nc(C(CCC)CCBr)n(Cc2ccc(-c3ccccc3-c3nnn(C(c4ccccc4)(c4ccccc4)c4ccccc4)n3)cc2)c1=O` (stereo not given), which IC50 is on record?
A: Its IC50 is over 10 µM.

Q: For `CCCCn1nc2n(c1=O)C(c1ccc(-c3ccccc3-c3nn[nH]n3)cc1)CCC2CCC` (stereo in doubt; 12), which IC50 is on record?
A: The IC50 was 1.8 µM.

Q: How did the IC50 turn out when `CCCCn1nc2n(c1=O)C(c1ccc(-c3ccccc3-c3nn[nH]n3)cc1)CCC2CCC` (stereo in doubt; 13) was run?
A: The IC50 was 1.6 µM.

Target: T1, Type-1 angiotensin II receptor B
Test: Inhibition of [125-I]-labeled angiotensin II binding to AT1 receptor in rat uterine membranes
Assay type: cell membranes, Membrane
Conditions: not given

Q: Which IC50 does the source give for `CCCCc1ncc2n1[C@H](c1ccc(-c3ccccc3-c3nnn(C(c4ccccc4)(c4ccccc4)c4ccccc4)n3)cc1)CC[C@@H]2N1C(=O)CCC1=O` here?
A: The IC50 was over 10 µM.

Q: `CCCCc1ncc2n1C(c1ccc(-c3ccccc3-c3nnn[nH]3)cc1)CC=C2` (stereo not given) was tested. Which IC50 did it give?
A: The IC50 was 0.12 µM.

Q: How did the IC50 turn out when `CCCCn1nc2n(c1=O)C(c1ccc(-c3ccccc3-c3nnn(C(c4ccccc4)(c4ccccc4)c4ccccc4)n3)cc1)CCC2CCC` (stereo not given) was run?
A: The IC50 was over 10 µM.

Q: For `CCCCn1nc2n(c1=O)C(c1ccc(-c3ccccc3-c3nn[nH]n3)cc1)CCC2` (stereo not given), which IC50 is on record?
A: The IC50 was over 10 µM.

Q: Which IC50 does the source give for `CCCCc1ncc2n1[C@H](c1ccc(-c3ccccc3-c3nnn(C(c4ccccc4)(c4ccccc4)c4ccccc4)n3)cc1)C[C@@H](Br)[C@@H]2N1C(=O)CCC1=O` here?
A: The IC50 was over 10 µM.

Q: How did the IC50 turn out when `CCCCc1nc(Cl)c2n1[C@H](c1ccc(-c3ccccc3-c3nn[nH]n3)cc1)CC[C@@H]2N1C(=O)CCC1=O` was run?
A: Its IC50 is 0.011 µM.

Q: Which IC50 does the source give for `CCCCc1ncc2n1[C@H](c1ccc(-c3ccccc3-c3nn[nH]n3)cc1)CC[C@@H]2N1C(=O)CCC1=O` here?
A: Its IC50 is 0.015 µM.

Q: How did the IC50 turn out when `CCCCc1cn(Cc2ccc(-c3ccccc3-c3nnn(C(c4ccccc4)(c4ccccc4)c4ccccc4)n3)cc2)c(CCCC)n1` was run?
A: Its IC50 is over 10 µM.

Q: For `CCCCc1cn(Cc2ccc(-c3ccccc3-c3nnn[nH]3)cc2)c(CCCC)n1`, which IC50 is on record?
A: Its IC50 is 0.063 µM.

Q: For `CCCCc1nc(CCCC)n2c1C=CCC2c1ccc(-c2ccccc2-c2nn[nH]n2)cc1` (stereo not given), which IC50 is on record?
A: Its IC50 is 0.19 µM.

Species: Oryctolagus cuniculus
Test: Compound was tested in vitro for its ability to antagonize the AII-mediated contraction of rabbit aortic rings
Assay type: functional, Aorta
Conditions: not given

Q: For `CCCCc1ncc2n1[C@H](c1ccc(-c3ccccc3-c3nn[nH]n3)cc1)CC[C@@H]2N1C(=O)CCC1=O`, which pA2 is on record?
A: Its pA2 is 8.6.

Same assay, conditions: Oryctolagus cuniculus, Aorta; read-out: pA2 (converted)

Q: Which Kb does the source give for `CCCCc1nc(Cl)c2n1[C@H](c1ccc(-c3ccccc3-c3nn[nH]n3)cc1)CC[C@@H]2N1C(=O)CCC1=O` here?
A: The Kb was 0.00158 µM.
